In one assay the target is T1, GCK (Homo sapiens, UniProt Q12851).
T1 sequence (Q12851 1-820): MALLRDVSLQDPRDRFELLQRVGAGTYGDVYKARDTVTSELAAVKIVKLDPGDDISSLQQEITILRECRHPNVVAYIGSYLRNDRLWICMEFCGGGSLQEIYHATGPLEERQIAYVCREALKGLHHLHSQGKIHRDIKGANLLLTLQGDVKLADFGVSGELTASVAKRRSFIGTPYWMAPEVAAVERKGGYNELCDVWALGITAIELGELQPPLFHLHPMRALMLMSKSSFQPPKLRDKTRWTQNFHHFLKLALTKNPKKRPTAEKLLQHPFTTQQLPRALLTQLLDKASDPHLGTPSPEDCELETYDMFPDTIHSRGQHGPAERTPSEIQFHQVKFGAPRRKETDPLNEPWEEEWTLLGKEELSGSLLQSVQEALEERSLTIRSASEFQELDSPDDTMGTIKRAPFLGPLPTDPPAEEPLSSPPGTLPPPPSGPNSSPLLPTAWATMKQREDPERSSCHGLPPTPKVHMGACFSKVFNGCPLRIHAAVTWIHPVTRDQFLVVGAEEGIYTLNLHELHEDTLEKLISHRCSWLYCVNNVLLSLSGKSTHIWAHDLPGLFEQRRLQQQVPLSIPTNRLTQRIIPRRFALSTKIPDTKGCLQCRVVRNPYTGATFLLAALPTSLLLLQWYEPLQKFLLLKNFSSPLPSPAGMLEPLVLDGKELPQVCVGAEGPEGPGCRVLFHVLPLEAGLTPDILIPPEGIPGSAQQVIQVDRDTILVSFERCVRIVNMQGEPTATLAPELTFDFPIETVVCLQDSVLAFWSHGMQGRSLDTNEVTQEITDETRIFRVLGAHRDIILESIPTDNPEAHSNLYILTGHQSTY
Kind of assay: Kinase profiling panel. The format is biochemical. The settings on record: read-out: percentage of kinase activity compared with control.

The next assay deals with PAK4 (Homo sapiens, UniProt O96013). Briefly: Kinase profiling panel. Type of assay: biochemical. The conditions noted are these: read-out: percentage of kinase activity compared with control.
Sequence of PAK4 (O96013 whole entry): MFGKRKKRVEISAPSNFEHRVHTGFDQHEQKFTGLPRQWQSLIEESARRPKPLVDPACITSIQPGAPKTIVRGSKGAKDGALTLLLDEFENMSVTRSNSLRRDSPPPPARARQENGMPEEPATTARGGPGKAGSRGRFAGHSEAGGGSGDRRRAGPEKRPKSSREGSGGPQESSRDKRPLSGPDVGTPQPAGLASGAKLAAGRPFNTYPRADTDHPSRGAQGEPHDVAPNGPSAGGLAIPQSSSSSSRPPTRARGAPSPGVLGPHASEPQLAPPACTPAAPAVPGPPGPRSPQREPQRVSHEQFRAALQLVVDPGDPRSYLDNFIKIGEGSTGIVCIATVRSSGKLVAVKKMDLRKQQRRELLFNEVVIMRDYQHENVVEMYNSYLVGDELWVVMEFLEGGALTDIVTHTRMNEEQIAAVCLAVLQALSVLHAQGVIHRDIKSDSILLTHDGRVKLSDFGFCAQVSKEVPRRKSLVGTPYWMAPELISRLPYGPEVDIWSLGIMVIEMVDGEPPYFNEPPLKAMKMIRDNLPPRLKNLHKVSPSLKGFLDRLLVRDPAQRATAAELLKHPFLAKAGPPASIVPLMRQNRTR

With `CCN(CC)CCNC(=O)c1c(C)[nH]c(/C=C2\C(=O)Nc3ccc(F)cc32)c1C` [Sunitinib, sunitinib], the remaining activity at 1 µM turned out to be 11 ± 1% at GCK and 72 ± 5% at PAK4.

(Values after paper PMC3759966 (The Biochemical journal, 2009).)
